According to patent publication US20190054047A1, “TREATMENT OF MALIGNANT ADRENOCORTICAL TUMOR WITH NICLOSAMIDE AND OTHER COMPOUNDS” (The U.S.A., as represented by the Secretary, Department of …, priority 2016, published 2019):

Tests used:
[1] = system: NCI-H295R cells; assay: Proliferation with niclosamide, mitotane or the combination (CyQuant, Chou-Talalay); type: cell-based; details: niclosamide 0.05-0.2 μM or mitotane 0.5-2 μM alone
Protocol: This example describes a method used to evaluate proliferation of H2965R adrenocortical carcinoma cells in the presence of (1) niclosamide alone (at 0.05 μM, 0.075 μM, 0.1 μM, 0.15 μM, or 0.2 μM), (2) mitotane alone (at 0.5 μM, 0.75 μM, 1 μM, 1.5 μM, or 2 μM), or (3) a combination of both niclosamide and mitotane.
NCI-H295R cells were cultured in Dulbecco modified Eagle medium (DMEM) supplemented with 2.5% NuSerum (BD Biosciences, San Jose, Calif.) and 0.1% ITS premix (BD Biosciences, San Jose, Calif.). Cells were maintained in 5% CO2 atmosphere at 37° C. 3×10^3 cells were plated in 96-well plates. […] Cell count was determined using the CyQuant kit (Life technologies, Grand Island, N.Y.) according to the manufacturer's instructions, and absorbance (cell number) was measured using a SpectraMax M5 microplate reader (Molecular Devices, Sunnyvale, Calif., ex485/em538). Assays were performed in quadruplicate and the experiments were repeated three times.
Statistical analysis was performed using GraphPad Prism 6 software (GraphPad Software, La Jolla, Calif.). Data was analyzed using a two-tailed Mann-Whitney test. Statistical significance was defined as a p-value of less than 0.05. Data are presented as mean±standard deviation (SD). […] Defined as a CI index of <1=synergistic, 1=additive, and >1 antagonistic.

[2] = system: AKT pathway; assay: AKT pathway inhibition (FIGS. 6A and 6B); type: cell-based; details: BD140A and H295R cells
[3] = system: NCI-H295R MCAs; assay: Three-dimensional multicellular aggregates (MCA); type: cell-based; details: after four weeks of treatment
Protocol: (§1) NCI-H295R and SW-13 cells, which form multicellular aggregates (MCA) or spheroids, were plated in Ultra Low Cluster 24-well plates (Costar, Corning, N.Y.) at 1×10^5 cells/0.5 mL or 6×10^4 cells/0.5 mL depending on the cell line. Spheroids were allowed to develop for one or two weeks at 37° C. in 5% CO2, and media was exchanged twice a week. Spheroids were treated with niclosamide or the vehicle at varying concentrations, and imaged weekly.

[4] = system: SW-13 MCAs; assay: Three-dimensional multicellular aggregates (MCA); type: cell-based; details: SW-13, after three weeks of treatment
Protocol: as §1

[5] = system: all three cell lines (ACC); assay: Seahorse XF96 mitochondrial metabolism assay (OCR, ECAR); type: cell-based
Protocol: The Seahorse XF96 assay was performed according to the manufacturer's instructions (Seahorse Bioscience, Billerica, Mass.). Briefly, cells were plated in XF96 plates and media was replaced with unbuffered DMEM supplemented with 2 mmol of glutamine and 2.5 g/L of D-Glucose. After 1 hour in a 37° C. CO2-free incubator, the oxygen consumption rate (OCR) and extracellular acidification rate (ECAR) were measured before and after injection of the drug, the vehicle, or carbonyl cyanide 4-(trifluoromethoxy) phenylhydrazone (FCCP) using the Seahorse XF96 extracellular flux analyzer.

[6] = system: adrenocortical carcinoma cell lines NCIH295R, BD140A and SW-13; assay: qHTS of 4,292 compounds, activity in all three ACC cell lines; type: cell-based; details: lower IC50 and higher efficacy vs cisplatin, doxorubicin, etoposide, mitotane, streptozocin (FIG. 1)
Protocol: (§2) NCI-H295R and SW-13 cells were cultured in Dulbecco's modified Eagle medium (DMEM) supplemented with 2.5% NuSerum (BD Biosciences, San Jose, Calif.) and 0.1% ITS premix (BD Biosciences, San Jose, Calif.). BD140A cells, provided by Drs. Kimberly Bussey and Michael Demeure (Phoenix, Ariz.), were cultured in RPMI supplemented with 1% […] (Gibco, Grand Island, N.Y.), 1% penicillin-streptomycin (Gibco, Grand Island, N.Y.), and 10% fetal bovine serum (FBS; Invitrogen, Carlsbad, Calif.). The cell lines were authenticated using short tandem repeat profiling. Cells were maintained in a 5% CO2 atmosphere at 37° C.
The National Institutes of Health Chemical Genomic Center pharmaceutical library consists of 4,292 small molecules and compounds. Compounds were prepared as described previously (Mehta et al., Clin Cancer Res. 21:4123-32, 2015; hereby incorporated by reference in its entirety). The cell viability of treated cells was measured using the luciferase-coupled ATP quantitation assay, Cell Titer-Glo (Promega, Madison, Wis.). Doxorubicin hydrochloride and tetraoctylammonium bromide were used as positive controls. The final concentration of compounds in the assay ranged from 0.6 nM to 46 μM. […]

[7] = system: SW-13; assay: Caspase 3/7 activity assay (Caspase-Glo 3/7); type: cell-based; details: SW-13, 96 hours
Protocol: (§3) Cells were plated in 96-well plates and treated with niclosamide or the vehicle. Caspase 3/7 activity was measured using the Caspase-Glo 3/7 assay (Promega, Madison, Wis.), according to manufacturer's instructions.

[8] = system: NCI-H295R; assay: Caspase 3/7 activity assay (Caspase-Glo 3/7); type: cell-based; details: 48 hours
Protocol: as §3

[9] = system: BD140A cells; assay: Caspase 3/7 activity assay (Caspase-Glo 3/7); type: cell-based
Protocol: as §3

[10] = in vivo; cited from earlier work
[11] = system: β-catenin; assay: Western blot analysis of β-catenin; type: cell-based; details: all three cell lines
Protocol: (§4) The following antibodies were used: anti-beta catenin (1:1,000) from R&D Systems (Minneapolis, Minn.); anti-GAPDH (1:3,000) from Santa Cruz Biotechnology (Dallas, Tex.); anti-N-cadherin (1:4,000) from EMD Millipore (Billerica, Mass.); and anti-vimentin (1:5,000) from Cell Signaling Technology (Boston, Mass.). Niclosamide (2′,5-dichloro-4′-nitrosalicylanilide) was purchased from Sigma-Aldrich (St. Louis, Mo.) and dissolved in DMSO for in vitro studies.
(§5) Cell lysates were analyzed by SDS-PAGE and transferred to a PVDF membrane. The membranes were incubated with the appropriate primary antibodies overnight at 4° C., followed by horseradish peroxidase conjugated IgG (anti-rabbit 1:3,000, Cell Signaling Technology; anti-mouse 1:3,000, Santa Cruz Biotechnology; anti-goat 1:2,000, R&D Systems, Inc.). Proteins were detected by enhanced chemiluminescence (ECL; Thermoscientific, Rockford, Ill.).

[12] = cited from earlier work
[13] = system: three ACC cell lines (BD140A, SW-13, NCI-H295R); assay: Cellular proliferation assay (CyQuant), monolayer culture; type: cell-based
Protocol: 3×10^3 and 6×10^3 cells were plated in 96-well plates depending on the cell line. 100 μL of fresh culture medium containing the drug or vehicle was added. Cell count was determined using the CyQuant kit (Life Technologies, Grand Island, N.Y.), according to the manufacturer's instructions, and cell number was measured using a SpectraMax M5 microplate reader (ex485/em538; Molecular Devices, Sunnyvale, Calif.). Assays were performed in quadruplicate and the experiments were repeated three times.

[14] = system: SW-13; assay: qHTS cell viability (Cell Titer-Glo ATP quantitation); type: cell-based; details: Homo sapiens, SW13; SW-13, qHTS
Protocol: as §2
(§6) The National Institutes of Health Chemical Genomic Center pharmaceutical library consists of 4,292 small molecules and compounds. Compounds were prepared as described previously (Mehta et al., Clin Cancer Res. 21:4123-32, 2015; hereby incorporated by reference in its entirety). The cell viability of treated cells was measured using the luciferase-coupled ATP quantitation assay, Cell Titer-Glo (Promega, Madison, Wis.). Doxorubicin hydrochloride and tetraoctylammonium bromide were used as positive controls. The final concentration of compounds in the assay ranged from 0.6 nM to 46 μM. The titration-response data was plotted and modeled by a four-parameter logistic fit-to-yield half-maximal inhibitory concentration (IC50) and efficacy (maximal response), as compared to tetraoctylammonium bromide values.

[15] = system: NCI-H295R; assay: as above; type: cell-based; details: Homo sapiens
Protocol: as §2, §6

[16] = system: BD140A; assay: as above; type: cell-based
Protocol: as §2, §6

[17] = system: N-cadherin; assay: Western blot analysis of EMT mediators; type: cell-based; details: 48 hours of treatment
Protocol: as §4, §5

[18] = system: vimentin; assay: Western blot analysis of EMT mediators; type: cell-based; details: 48 hours of treatment
Protocol: as §4, §5

[19] = system: NCI-H295R xenografts; assay: ACC xenograft tumor growth in vivo; set-up: species or system Nu+/Nu+ mice; details: for inhibition in tumor growth: four weeks, vs vehicle control
Protocol: Mice were maintained according to National Institutes of Health (NIH) Animal Research Advisory Committee (ARAC) guidelines. 5×10^6 NCI-H295R cells were injected into the flank of Nu^+/Nu^+mice. Tumors were allowed to grow and mice were randomized into three treatment groups (8 mice per treatment group). M ice were treated with 100 mg/kg of niclosamide, 200 mg/kg of niclosamide, or the vehicle (PEG500) everyday by oral gavage. Tumor sizes were measured in two dimensions every week with calipers and recorded.

[20] = system: ACC cells; assay: TMRE staining, mitochondrial membrane potential; type: cell-based; details: after 3 hours and 6 hours of treatment
Protocol: Cells in 96-well plates were treated with the drug or vehicle. Cells were then stained with 200 nM of tetramethylrhodamine, ethyl ester (TMRE) for 20 minutes at 37° C. and were washed with PBS; fluorescence was measured using a SpectraMax M5e 96-well fluorescence microplate reader. FCCP was used as a positive control.

[21] = humans; read-out: known Cmax in humans; cited from earlier work
[22] = system: all three ACC cell lines; assay: Cell cycle analysis (propidium iodide flow cytometry); type: cell-based; details: 48 hours, more cells in G1, fewer in S phase
Protocol: Cells plated in six-well plates were treated with niclosamide or the vehicle. At 48 hours, cells were fixed for 30 minutes in 70% ethanol at 4° C., and stained with 50 μg/mL of propidium iodide containing […] of ribonuclease A. Flow cytometry was performed on a Canto I flow cytometer (Becton-Dickinson, Franklin Lakes, N.J.) using CellQuest software (BD Biosciences, San Jose, Calif.). Data was generated for at least 20,000 events per sample and analyzed using Modfit software (Verity Software House, Inc., Topsham, Me.).

[23] = system: NCI-H295R and SW-13; assay: Transwell (Boyden chamber) migration assay; type: cell-based; details: transwell migration assays
Protocol: (§7) NCI-H295R and SW-13 cells were plated in six-well plates and treated with varying concentrations of niclosamide or the vehicle for 24 hours. Cells were trypsinized and plated in transwell chambers (BD Biosciences, San Jose, Calif.) at a density of 1×10^5 cells per 0.5 mL. The lower chamber was filled with DMEM supplemented with 10% FBS as a chemoattractant. Cells were allowed to migrate for 24 hours or 48 hours depending on the cell line, and were fixed and stained with Diff-Quik (Dade Behring, Newark, N.J.). Cells were imaged and counted in three random fields per well, and the experiments performed in triplicate. […] The cells were scratched using a sterile pipette tip and photographed at various time points.

[24] = system: BD140A cells; assay: Wound-healing migration assay; type: cell-based; details: wound-heal assay, after 6 hours and 12 hours, vs vehicle control
Protocol: as §7

For Clc1ccc(C(c2ccccc2Cl)C(Cl)Cl)cc1 (stereo not shown) [mitotane], the “reducing proliferation of H295R cells, single agent” value [1] was “some effect”.
In the case of O=C(Nc1ccc([N+](=O)[O-])cc1Cl)c1cc(Cl)ccc1O [niclosamide, 5-chloro-N-(2-chloro-4-nitrophenyl)-2-hydrobenzamide], the AKT pathway [2] is reported as “inhibited”, the “effect on MCAs” value [3] is reported as “growth inhibition and disintegration of the MCAs” and the “effect on MCAs” value [4] is reported as “growth inhibition and disintegration of the MCAs”. The “extracellular acidification rate (ECAR)” value [5] was “increased”, the “oxygen consumption rate (OCR)” value [5] was “increased” and the “activity compared to commonly used drugs for ACC” value [6] was “better activity”. The “caspase 3/7 activity” value [7] was “increased”, the “caspase 3/7 activity” value [8] was “increased” and the “caspase 3/7 activity” value [9] was “no increase”. For the same molecule, the oral bioavailability [10] was “low”, the “expression of β-catenin” value [11] was “reduced” and the water solubility [12] was “low”. The “cytotoxicity (killing pre-existing cancer cells)” value ([13]; at higher concentrations) was “cytotoxic”, the cellular proliferation ([13]; monolayer cell culture, three ACC cell lines) was “inhibited proliferation in a time- and dose-dependent manner” and the “reducing proliferation of H295R cells, single agent” value [1] was “some effect”. It also gave an IC50 [14] of 150 nM, an IC50 [15] of 530 nM and an IC50 [16] of 120 nM. For the same molecule, the “expression of N-cadherin” value [17] was “reduced”, the expression of vimentin [18] was “reduced” and the tumor growth inhibition ([19]; 100 mg/kg and 200 mg/kg groups, 8 weeks, vs control group) was “more than 90%”. The “tolerability / toxicity in mice” value ([19]; 100 mg/kg and 200 mg/kg oral) was “no observed toxicity or side effects”, the “inhibition in tumor growth” value ([19]; 100 mg/kg everyday by oral gavage) was 60% and the “inhibition in tumor growth” value ([19]; 200 mg/kg everyday by oral gavage) was 80%. For the same molecule, the mouse body weight ([19]; treated groups vs vehicle) was “no significant weight differences”, the “mitochondrial membrane potential (TMRE)” value [20] was “decrease” and the Cmax [21] was 18.3 µM. For the same molecule, the cell cycle progression [22] was “induced G1 cell cycle arrest”, the cellular migration [23] was “Reduced” and the cell migration [24] was “decreased”.
